Reference: publication PMC9250970, “Role of Helical Structure in MBP Immunodominant Peptides for Efficient IgM Antibody Recognition in Multiple Sclerosis” (Frontiers in Chemistry, 2022)
“Also recorded” adds a separate entry of the source.

Assays:
[1] = system: anti-MBP protein IgM antibodies of MS serum; test: Inhibition (competitive) ELISA, MBP protein coated; type: binding, human; conditions: tested MS serum; peptides 1 and 2 as inhibitors
Description: (§1) Fifteen Multiple Sclerosis (MS) patients were recruited in the Multiple Sclerosis Clinical Care and Research Centre, Department of Neurosciences, Reproductive Sciences and Odontostomatology, Federico II University (Naples, Italy). The relapsing-remitting MS (RR-MS) patients were previously diagnosed after a lumbar puncture, cerebrospinal fluid analysis, and MRI examination and fulfilled the established international diagnostic criteria ([Polman et al., 2011]; [Thompson et al., 2018]). The present study was conducted in accordance with the Declaration of Helsinki. The performed experimental protocols were approved by the Ethics Committee 2006 (protocol n. 120/06) and 2017 (protocol n. 160/17). […]
(§2) Nunc-Immuno MicroWell 96 well polystyrene ELISA plates (NUNC Maxisorb, product code M9410, Merck, Milan, Italy) were coated with a solution 10 μg/ml of the peptide antigens in pure carbonate buffer 0.05 M (pH 9.6) adding 100 μL/well, and microplates were incubated at 4°C overnight. […] Antibody affinity was measured following the competitive ELISA previously reported ([Real-Fernández et al., 2015]). Semi-saturating sera dilution was previously calculated in preliminary titration curves (absorbance 0.7). […] After approximately 30 min, the reaction was stopped with 1 M NaOH solution (50 μL/well), and the absorbance was read in a multichannel ELISA reader (Tecan Sunrise, Männedorf, Switzerland) at 405 nm. […]

[2] = system: IgM antibodies in MS patient sera; test: Solid-phase ELISA (SP-ELISA), IgM; type: binding, human; conditions: peptide coated 10 μg/ml; for patients in whose serum IgM antibodies were detected: 1 out of 15 patients, sera 1:100; for IgM antibody detection (in words): fifteen MS patient sera 1:100, carbonate buffer pH 9.6, anti-human IgM 1:200, 405 nm
Description: Fifteen Multiple Sclerosis (MS) patients were recruited in the Multiple Sclerosis Clinical Care and Research Centre, Department of Neurosciences, Reproductive Sciences and Odontostomatology, Federico II University (Naples, Italy). The relapsing-remitting MS (RR-MS) patients were previously diagnosed after a lumbar puncture, cerebrospinal fluid analysis, and MRI examination and fulfilled the established international diagnostic criteria ([Polman et al., 2011]; [Thompson et al., 2018]). The present study was conducted in accordance with the Declaration of Helsinki. The performed experimental protocols were approved by the Ethics Committee 2006 (protocol n. 120/06) and 2017 (protocol n. 160/17). Blood samplings were performed during the routine follow-up of patients, while the healthy control samplings were carried out during routine health checks or blood donations. Sera samples were obtained for diagnostic purposes from patients and healthy controls who had given their informed consent. Blood samples were centrifuged at 4,000 rpm for 10 min and sera supernatant was stored at -20°C until use.
Immunoassays were performed to evaluate IgM or IgG antibodies in sera by SP-ELISA. At this purpose, the synthetic antigens were coated on 96-well plates (NUNC Maxisorb, product code M9410, Merck, Milan, Italy). Coating conditions were set-up independently for each peptide and results are reported in the Supplementary Material. Polystyrene 96-well ELISA plates were coated with 100 μL/well of a 10 μg/ml solution of synthetic peptide antigens 1-6 diluted in pure carbonate buffer 0.05 M (pH 9.6), independently. After overnight incubation at 4°C, plates were washed (3×) using washing buffer. Nonspecific binding sites were blocked with 100 μL/well of fetal bovine serum buffer (10% FBS in washing buffer) at room temperature for 1 h. FBS buffer was removed, and plates were incubated overnight at 4°C with sera (diluted 1:100 in FBS buffer, 100 μL/well). After three washes, plates were treated with 100 μL/well of anti-human IgG or IgM alkaline phosphatase-conjugated specific antibodies diluted in FBS buffer 1:3,000 (IgG) and 1:200 (IgM) for all tested antigens. […] Colorimetric reaction was carried out adding 100 μl of substrate reaction solution (1 mg/ml pNPP, MgCl2 0.01 M in carbonate buffer, pH 9.6) to each well and plates were read at 405 nm using a TECAN plate reader. After 30 min, the reaction was stopped with 1 M NaOH solution (50 μL/well) and the absorbance was read in a multichannel ELISA reader (Tecan Sunrise, Männedorf, Switzerland) at 405 nm. Antibody titer values were calculated as (mean Abs of serum triplicate)—(mean Abs of blank triplicate) representing graphically the calculated mean values. […]

[3] = Circular dichroism (secondary structure); type: physicochemical; conditions: for % helix / effect of temperature on secondary structure / self-aggregation (in words) / secondary structure (in words) / effect of temperature on secondary structure (in words): CD; for % helix: H2O:TFE (50:50, v:v); for effect of temperature on secondary structure / self-aggregation (in words): PBS pH 7.4, 10 to 60°C in increments of 5°C; for effect of temperature on secondary structure (in words): Supplementary Figures S14, S15, various temperatures (10 to 60°C)
Method: CD spectra were recorded on JASCO J-815 with increasing temperature from 10 to 60°C in increments of 5°C between λ = 270 and 185 nm. The CD measurements were carried out in H2O, a mixture of H2O:TFE (50:50, v:v) and PBS (phosphate buffered saline, pH 7.4, containing: sodium chloride, potassium chloride, sodium phosphate dibasic, potassium phosphate monobasic). The spectra were registered with the following parameters: 0.2 nm resolution, 1.0 nm bandwidth, 20 mdeg sensitivity, 0.25 s response, 100 nm min^−1 scanning speed, 5 scans, and 0.02 cm cuvette path length. The CD spectra of solvents were recorded and subtracted from the raw data. The spectra were corrected by a baseline that was measured with the identical solvent in the same cell. The CD intensity is given as mean residue molar ellipticity (θ) [deg × cm^2 × dmol^−1].

[4] = NMR conformational analysis in DPC micelles; type: physicochemical; conditions: 1H NMR (chemical shift and NOE), 100 mM DPC-d38, 50 mM potassium phosphate pH 6.5, 10% D2O, 25°C; remaining regions random coil
Method: The samples for NMR spectroscopy were prepared by dissolving the appropriate amount of peptide in 50 mM potassium phosphate buffer (pH 6.5), 10% D2O, and 100 mM DPC-d38. NMR spectra were recorded on a Varian INOVA 600 MHz spectrometer equipped with a z-gradient 5 mm triple-resonance probe head. Spectra were recorded at a temperature of 25°C. The spectra were calibrated relative to TSP (0.00 ppm) as internal standard. One-dimensional (1D) NMR spectra were recorded in the Fourier mode with quadrature detection. The water signal was suppressed by gradient echo ([Hwang and Shaka, 1995]). 2D DQF-COSY ([Piantini et al., 1982]; [Marion and Wüthrich, 1983]), TOCSY ([Braunschweiler and Ernst, 1983]), and NOESY ([Jenner et al., 1979]) spectra were recorded in the phase-sensitive mode. Data block sizes were 2048 addresses in T2 and 512 equidistant T1 values. Before Fourier transformation, the time domain data matrices were multiplied by shifted sin2 functions in both dimensions. A mixing time of 70 ms was used for the TOCSY experiments. NOESY experiments were run with mixing time of 100 ms.

[5] = system: IgG antibodies in MS patient sera; test: Solid-phase ELISA (SP-ELISA), IgG; type: binding; conditions: fifteen MS patient sera 1:100; peptide coated 10 μg/ml, carbonate buffer pH 9.6; anti-human IgG 1:3,000; 405 nm
Description: as §1
Immunoassays were performed to evaluate IgM or IgG antibodies in sera by SP-ELISA. […] Colorimetric reaction was carried out adding 100 μl of substrate reaction solution (1 mg/ml pNPP, MgCl2 0.01 M in carbonate buffer, pH 9.6) to each well and plates were read at 405 nm using a TECAN plate reader. After 30 min, the reaction was stopped with 1 M NaOH solution (50 μL/well) and the absorbance was read in a multichannel ELISA reader (Tecan Sunrise, Männedorf, Switzerland) at 405 nm. Antibody titer values were calculated as (mean Abs of serum triplicate)—(mean Abs of blank triplicate) representing graphically the calculated mean values. […]

[6] = system: anti-MBP (76–116) IgM antibodies of MS serum; test: Inhibition (competitive) ELISA, MBP (76–116) (2) coated; type: binding, human
Description: as §1, §2

| Sequence | inhibition of IgM antibody binding to MBP protein (in words) [1] | patients in whose serum IgM antibodies were detected [2] [%] | IgM antibody detection (in words) [2] | % helix ([3]; 25°C) [%] | effect of temperature on secondary structure / self-aggregation (in words) [3] | secondary structure (in words) ([3]; PBS pH 7.4, 25°C) | effect of temperature on secondary structure (in words) [3] | secondary structure (in words) ([3]; water, 25°C) | minimum of CD spectrum attributed to beta structures (aggregation) ([3]; PBS pH 7.4, increasing temperature, temperature-induced self-aggregation) | helical structure, residues [4] | IgG antibody reactivity (in words) [5] | affinity of IgMs in competitive ELISA, fold greater than longer analogue MBP (76–116) (2) ([6]; competitive ELISA, MS serum, compared to the longer analogue) [fold] | antibody affinity/recognition in competitive experiment (in words) ([6]; solution conditions of the competitive experiments, peptide 1 vs. peptide 2) |
| --- | --- | --- | --- | --- | --- | --- | --- | --- | --- | --- | --- | --- | --- |
| SQHGRTQDENPVVHFFKNIVTPRTPPPSQGKGRGLSLSRFS [MBP (76–116) (2), elongated synthetic peptide, fragment 76–116 of myelin basic protein] | able to inhibit IgM antibody binding to MBP protein in the tested MS serum with comparable IC50 | 7 | IgM antibodies were detected in one representative patient serum; also recorded: able to detect a high, stable, and reproducible IgM antibody titer | 3 | shift of the minimum to lower wavelength and a strong decrease of the signal intensity; also recorded: temperature-induced peptide self-aggregation, likely in beta structures | random coil structures | no spectral differences of secondary peptide structure at various temperatures | randomly structured in water solution | about 205 nm | 87–96 |  |  |  |
| TPPPSQGK [MBP (99–106) (6)] |  |  |  |  |  |  |  |  |  |  | nonspecific IgG antibody reactivity |  |  |
| TQDENPVVHFFKNIVTPRTPPPSQGK [MBP (81–106) (1), synthetic peptide, fragment 81–106 of myelin basic protein, covering the immunodominant region] | able to inhibit IgM antibody binding to MBP protein in the tested MS serum with comparable IC50 | 7 | slightly recognized IgGs and IgMs | 14 | no differences of secondary structure at various temperatures |  | no spectral differences of secondary peptide structure at various temperatures | randomly structured in water solution |  | 87–96 | To a lesser extent, also against peptide MBP (81–106) (1); also recorded: slightly recognized IgGs and IgMs | 4 | recognized more efficiently by antibodies in the solution conditions of the competitive experiments |
